Experimental data taken from patent publication US4732977A, “Carbapenem antibiotics” (priority 1986, dated 1988).
≈ marks a conversion by molar mass, not a printed value. Like-named read-outs stand apart in the source and are kept apart here.

Legend:
E. cloacae A-9659 = assay: M.I.C., tube dilution; type: cell-based; settings: overnight incubation at 37° C., Nutrient Broth
P. aeruginosa A-9843A [1] = assay: M.I.C., tube dilution; type: cell-based; settings: overnight incubation at 37° C., Nutrient Broth
P. mirabilis A-9900 [2] = assay: M.I.C., tube dilution; type: cell-based; settings: Nutrient Broth
[3] = Blood levels in mice after intramuscular administration; settings: for AUC / Cmax / half-life: 20 mg/kg;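 as to all read-outs here: compounds dissolved in 0.1 M phosphate buffer at pH 7, data from one experiment using four mice for each compound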
Description: Compounds were solubilized in 0.1 M phosphate buffer pH 7.
a single test; 4 mice used per compound.
Compounds were solubilized in 0.1 M phosphate buffer, pH 7.
on a single test; 4 mice per compound.

[4] = tested on: S. aureus A-9606 (Pen-res.); assay: M.I.C., tube dilution; type: cell-based; settings: overnight incubation at 37° C.
E. cloacae A-9656 = assay: M.I.C., tube dilution; type: cell-based; settings: Nutrient Broth
S. aureus A-9537 = assay: M.I.C., tube dilution; type: cell-based
E. coli A15119 = assay: M.I.C., tube dilution; type: cell-based; settings: overnight incubation at 37° C., Nutrient Broth
S. pyogenes A-9604 = assay: M.I.C., tube dilution; type: cell-based; settings: overnight incubation at 37° C., Nutrient Broth
K. pneumoniae A20468 = assay: M.I.C., tube dilution; type: cell-based; settings: Nutrient Broth
S. faecalis A20688 = assay: M.I.C., tube dilution; type: cell-based; settings: Nutrient Broth
P. vulgaris A21559 = assay: M.I.C., tube dilution; type: cell-based; settings: Nutrient Broth
K. pneumoniae A-9664 = assay: M.I.C., tube dilution; type: cell-based; settings: Nutrient Broth
S. pneumoniae A-9585 = assay: M.I.C., tube dilution; type: cell-based; settings: overnight incubation at 37° C., Nutrient Broth
P. morganii A15153 = assay: M.I.C., tube dilution; type: cell-based; settings: printed M. morganii A15153, overnight incubation at 37° C.
E. coli A20341-1 = assay: M.I.C., tube dilution; type: cell-based; settings: overnight incubation at 37° C., Nutrient Broth
P. aeruginosa A21213 = assay: M.I.C., tube dilution; type: cell-based; settings: Nutrient Broth
P. rettgeri A22424 = assay: M.I.C., tube dilution; type: cell-based; settings: overnight incubation at 37° C., Nutrient Broth
S. marcescens A20019 = assay: M.I.C., tube dilution; type: cell-based; settings: overnight incubation at 37° C., Nutrient Broth
H. influenzae A-9833 = assay: M.I.C., tube dilution; type: cell-based; settings: Haemophilus influenzae, A9833; overnight incubation at 37° C., Nutrient Broth
B. fragilis A22696 = assay: M.I.C., tube dilution; type: cell-based; settings: Bacteroides fragilis, overnight incubation at 37° C., Nutrient Broth
K. pneumoniae A9664 = assay: Protective effect in intramuscular treatment of infected mice; type: in vivo; settings: Klebsiella pneumoniae, im, K. pneumoniae A9664, read-out: PD50/treatment
Description: (§1) The PD50 (dose in mg/kg) required to give protection to 50% of the infected mice is indicated.

P. aeruginosa A24081 = assay: as above; type: in vivo; settings: Pseudomonas aeruginosa, read-out: PD50/treatment
Description: as §1

P. aeruginosa A-9843a [5] = assay: animal or person; type: in vivo, mice; settings: for ED50: Pseudomonas aeruginosa, A9843A, in Mus musculus, im, read-out: PD50/treatment
Protocol: (§2) The PD50 (dose in mg/kg required to give protection to 50% of the infected mice) is indicated.
with drugs 0 and 2 hours postinfection.
as §1

E. coli A-15119 = assay: Protective effect in intramuscular treatment of infected mice; type: in vivo; settings: Escherichia coli, im; mice, i.m.; E. coli A15119; read-out: PD50/treatment
Protocol: as §2
with drugs 0 and 2 hours postinfection.
as §1

S. aureus A-9606 = assay: as above; type: in vivo; settings: Staphylococcus aureus, im; mice, i.m.; S. aureus A9606; read-out: PD50/treatment
Protocol: as §2
with drugs 0 and 2 hours postinfection.
as §1

P. mirabilis A-9900 [6] = assay: as above; type: in vivo; settings: Proteus mirabilis, im; mice, i.m.; P. mirabilis A9900; read-out: PD50/treatment
Protocol: as §2
with drugs 0 and 2 hours postinfection.
as §1

H. influenzae A21518 = assay: M.I.C., tube dilution; type: cell-based; settings: Haemophilus influenzae, overnight incubation at 37° C., Nutrient Broth
[7] = tested on: S. aureus A15097 (Meth-res.); assay: M.I.C., tube dilution; type: cell-based; settings: Staphylococcus aureus, overnight incubation at 37° C.
B. fragilis A22862 = assay: M.I.C., tube dilution; type: cell-based; settings: Bacteroides fragilis, overnight incubation at 37° C., Nutrient Broth
[8] = overnight incubation at 37° C., listed as Ex. 15"C"
[9] = Enterococcus faecalis, A20688, overnight incubation at 37° C., read-out: MIC
[10] = Proteus vulgaris, A21559, overnight incubation at 37° C., read-out: MIC
[11] = Pseudomonas aeruginosa, A21213, overnight incubation at 37° C., read-out: MIC
[12] = overnight incubation at 37° C., listed as Ex. 15 "B"

C[C@@H](O)C1C(=O)N2C(C(=O)[O-])=C(SCc3cn(C)n[n+]3C)CC12 (stereo partly drawn) [Example 15 "C", 3-[4-(N,N-dimethyl-1,2,3-triazolium)methylthio]-6α-[1-(R)-hydroxyethyl]-7-oxo-1-azabicyclo(3.2.0)hept-2-ene-2-carboxylate]
MIC (E. cloacae A-9659; listed as Ex. 15"C"): 0.13 µg/mL (≈ 0.384 µM)
MIC (P. aeruginosa A-9843A [1]; listed as Ex. 15"C"): 8 µg/mL (≈ 23.6 µM)
MIC (P. mirabilis A-9900 [2]; [8]): 0.06 µg/mL (≈ 0.177 µM)
T1/2 ([3]; mice, 20 mg/kg i.m. (table 9)): 10 min
AUC ([3]; mice, 20 mg/kg i.m. (table 9)): 7300 ng·h/mL
Cmax ([3]; mice, 20 mg/kg i.m. (table 9)): 15100 ng/mL
MIC [4]: 0.03 µg/mL (≈ 0.0887 µM)
MIC (E. cloacae A-9656; [8]): 0.13 µg/mL (≈ 0.384 µM)
MIC (S. aureus A-9537; +50% serum, listed as Ex. 15"C"): 0.06 µg/mL (≈ 0.177 µM)
MIC (S. aureus A-9537; overnight incubation at 37° C., Nutrient Broth, listed as Ex. 15"C"): 0.016 µg/mL (≈ 0.0473 µM)
MIC (E. coli A15119; listed as Ex. 15"C"): 0.06 µg/mL (≈ 0.177 µM)
MIC (S. pyogenes A-9604; listed as Ex. 15"C"): 0.0003 µg/mL (≈ 0.000887 µM)
MIC (K. pneumoniae A20468; [8]): 0.13 µg/mL (≈ 0.384 µM)
MIC (S. faecalis A20688; overnight incubation at 37° C.): 0.5 µg/mL (≈ 1.48 µM)
MIC (P. vulgaris A21559; [8]): 0.06 µg/mL (≈ 0.177 µM)
MIC (K. pneumoniae A-9664; [8]): 0.06 µg/mL (≈ 0.177 µM)
MIC (S. pneumoniae A-9585): 0.0005 µg/mL (≈ 0.00148 µM)
MIC (P. morganii A15153; listed as Ex. 15"C"): 0.25 µg/mL (≈ 0.739 µM)
MIC (E. coli A20341-1): 0.03 µg/mL (≈ 0.0887 µM)
MIC (P. aeruginosa A21213; [8]): 0.5 µg/mL (≈ 1.48 µM)
MIC (P. rettgeri A22424; listed as Ex. 15"C"): 0.25 µg/mL (≈ 0.739 µM)
MIC (S. marcescens A20019; listed as Ex. 15"C"): 0.13 µg/mL (≈ 0.384 µM)

C[C@@H](O)[C@H]1C(=O)N2C(C(=O)[O-])=C(SCc3ccc[n+](C)c3)C[C@H]12 [Example 3, 3-(N-Methylpyridine-3-yl-methanethio)-6α-[1-(R)-hydroxyethyl]-7-oxo-1-azabicyclo(3.2.0)hept-2-ene-2-carboxylate]
MIC (H. influenzae A-9833): 2 µg/mL (≈ 5.98 µM)
AUC ([3]; mouse, blood, im): 6900 ng·h/mL
Cmax ([3]; mouse, blood, im): 14500 ng/mL
half-life ([3]; mouse, blood, im): 10 min
MIC (B. fragilis A22696): 0.5 µg/mL (≈ 1.5 µM)
ED50 (K. pneumoniae A9664): 3 mg/kg
ED50 (P. aeruginosa A24081; im, mice, i.m., P. aeruginosa A24081): 0.8 mg/kg
MIC (S. faecalis A20688; [9]): 0.5 µg/mL (≈ 1.5 µM)
MIC (P. vulgaris A21559; [10]): 0.016 µg/mL (≈ 0.0478 µM)
ED50 (P. aeruginosa A-9843a [5]): 0.5 mg/kg
ED50 (E. coli A-15119): 1 mg/kg
ED50 (S. aureus A-9606): 0.07 mg/kg
ED50 (P. mirabilis A-9900 [6]): 2 mg/kg
MIC (H. influenzae A21518): 2 µg/mL (≈ 5.98 µM)
MIC [7]: 4 µg/mL (≈ 12 µM)
MIC (P. aeruginosa A21213; [11]): 0.5 µg/mL (≈ 1.5 µM)

C[C@@H](O)[C@H]1C(=O)N2C(C(=O)[O-])=C(SCc3cccc[n+]3C)C[C@H]12 [Example 4, 3-(N-Methylpyridine-2-yl-methanethio)-6α-[1-(R)-hydroxyethyl]-7-oxo-1-azabicyclo(3.2.0)hept-2-ene-2-carboxylate]
MIC (E. cloacae A-9659; Enterobacter cloacae, A9659, read-out: MIC): 0.03 µg/mL (≈ 0.0897 µM)
MIC (P. mirabilis A-9900 [2]; Proteus mirabilis, A9900, overnight incubation at 37° C., read-out: MIC): 0.06 µg/mL (≈ 0.179 µM)
MIC (H. influenzae A-9833): 2 µg/mL (≈ 5.98 µM)
AUC ([3]; mouse, blood, im): 7700 ng·h/mL
Cmax ([3]; mouse, blood, im): 15500 ng/mL
half-life ([3]; mouse, blood, im): 11 min
MIC (B. fragilis A22696): 0.5 µg/mL (≈ 1.5 µM)
MIC (E. cloacae A-9656; Enterobacter cloacae, A9656, overnight incubation at 37° C., read-out: MIC): 0.06 µg/mL (≈ 0.179 µM)
ED50 (K. pneumoniae A9664): 3 mg/kg
ED50 (P. aeruginosa A24081; A24081, im): 0.2 mg/kg
MIC (S. aureus A-9537; Staphylococcus aureus, A9537, +50% serum, read-out: MIC): 0.03 µg/mL (≈ 0.0897 µM)
MIC (S. pyogenes A-9604; Streptococcus pyogenes, A9604, read-out: MIC): 0.001 µg/mL (≈ 0.00299 µM)
MIC (K. pneumoniae A20468; Klebsiella pneumoniae, A20468, overnight incubation at 37° C., read-out: MIC): 0.03 µg/mL (≈ 0.0897 µM)
MIC (S. faecalis A20688; [9]): 0.5 µg/mL (≈ 1.5 µM)
MIC (P. vulgaris A21559; [10]): 0.016 µg/mL (≈ 0.0478 µM)
MIC (K. pneumoniae A-9664; Klebsiella pneumoniae, A9664, overnight incubation at 37° C., read-out: MIC): 0.03 µg/mL (≈ 0.0897 µM)
ED50 (P. aeruginosa A-9843a [5]): 0.2 mg/kg
ED50 (E. coli A-15119): 0.4 mg/kg
ED50 (S. aureus A-9606): 0.1 mg/kg
ED50 (P. mirabilis A-9900 [6]): 4 mg/kg
MIC (H. influenzae A21518): 2 µg/mL (≈ 5.98 µM)
MIC [7]: 4 µg/mL (≈ 12 µM)
MIC (P. aeruginosa A21213; [11]): 0.13 µg/mL (≈ 0.389 µM)
MIC (P. rettgeri A22424; Providencia rettgeri, A22424, read-out: MIC): 0.13 µg/mL (≈ 0.389 µM)
MIC (B. fragilis A22862): 0.06 µg/mL (≈ 0.179 µM)
MIC (S. marcescens A20019; Serratia marcescens, A20019, read-out: MIC): 0.03 µg/mL (≈ 0.0897 µM)

C[C@@H](O)C1C(=O)N2C(C(=O)[O-])=C(SCc3cn(C)n[n+]3C)CC12 (stereo partly drawn) [Example 15 "B", 3-[4-(N,N-dimethyl-1,2,3-triazolium)methylthio]-6α-[1-(R)-hydroxyethyl]-7-oxo-1-azabicyclo(3.2.0)hept-2-ene-2-carboxylate]
MIC (E. cloacae A-9659; listed as Ex. 15 "B"): 0.016 µg/mL (≈ 0.0473 µM)
MIC (P. aeruginosa A-9843A [1]; listed as Ex. 15 "B"): 2 µg/mL (≈ 5.91 µM)
MIC (P. mirabilis A-9900 [2]; overnight incubation at 37° C.): 0.03 µg/mL (≈ 0.0887 µM)
T1/2 ([3]; mice, 20 mg/kg i.m. (table 9)): 10 min
AUC ([3]; mice, 20 mg/kg i.m. (table 9)): 7400 ng·h/mL
Cmax ([3]; mice, 20 mg/kg i.m. (table 9)): 15900 ng/mL
MIC ([4]; listed as Ex. 15 "B"): 0.008 µg/mL (≈ 0.0236 µM)
MIC (E. cloacae A-9656; overnight incubation at 37° C.): 0.03 µg/mL (≈ 0.0887 µM)
MIC (S. aureus A-9537; +50% serum, listed as Ex. 15 "B"): 0.016 µg/mL (≈ 0.0473 µM)
MIC (S. aureus A-9537; overnight incubation at 37° C., Nutrient Broth, listed as Ex. 15 "B"): 0.004 µg/mL (≈ 0.0118 µM)
MIC (E. coli A15119; listed as Ex. 15 "B"): 0.008 µg/mL (≈ 0.0236 µM)
MIC (S. pyogenes A-9604; listed as Ex. 15 "B"): 0.001 µg/mL (≈ 0.00296 µM)
MIC (K. pneumoniae A20468; [12]): 0.016 µg/mL (≈ 0.0473 µM)
MIC (S. faecalis A20688; overnight incubation at 37° C.): 0.5 µg/mL (≈ 1.48 µM)
MIC (P. vulgaris A21559; [12]): 0.008 µg/mL (≈ 0.0236 µM)
MIC (K. pneumoniae A-9664; overnight incubation at 37° C.): 0.03 µg/mL (≈ 0.0887 µM)
MIC (S. pneumoniae A-9585): 0.0005 µg/mL (≈ 0.00148 µM)
PD50/treatment (P. aeruginosa A-9843a [5]; mice, i.m., P. aeruginosa A9843A): 0.89 mg/kg
MIC (P. morganii A15153; listed as Ex. 15 "B"): 0.06 µg/mL (≈ 0.177 µM)
MIC (E. coli A20341-1; listed as Ex. 15 "B"): 0.008 µg/mL (≈ 0.0236 µM)
MIC (P. aeruginosa A21213; [12]): 0.13 µg/mL (≈ 0.384 µM)
MIC (P. rettgeri A22424; listed as Ex. 15 "B"): 0.13 µg/mL (≈ 0.384 µM)
MIC (S. marcescens A20019; listed as Ex. 15 "B"): 0.016 µg/mL (≈ 0.0473 µM)
